Experimental data from publication PMC8722715 (Frontiers in Cell and Developmental Biology, 2021).

Tests used:
hNaV1.6 channel = molecular target: T1, hNaV1.6 channel (Homo sapiens, UniProt Q9UQD0); test: Automated patch-clamp block of hNaV1.6 peak Na+ current in HEK-293 cells; format: cell-based; settings: for hNaV1.6 IC50 versus WT: ratio of analogue mean IC50 to HwTx-IV WT mean IC50 on hNaV1.6; for IC50: HEK-293 cells stably expressing hNaV1.6, SyncroPatch 384 PE whole-cell, holding -100 mV, 0 mV test pulse 50 ms every 5 s, room temperature 18-22°C, 0.3% BSA, steady state or end of 15-min application, mean, S.E.M. and n cells
T1 construct: expressed in transfected cells
Procedure: (§1) CHO cells stably expressing the hNaV1.7 channel subtype were cultured in Dulbecco’s Modified Eagle’s Medium F-12 (DMEM/F12) supplemented with 10% fetal bovine serum, 2 mM glutamine, 200 μg/ml hygromycine B, 10 U/ml penicillin and 10 μg/ml streptomycin (Gibco, Grand Island, NY). HEK-293 cells stably expressing the hNaV1.6 channel subtype were cultured in Dulbecco’s Modified Eagle’s Medium (DMEM) supplemented with 10% fetal calf serum, 1 mM pyruvic acid, 4.5 g/L glucose, 2 mM glutamine, 800 μg/ml G418, 10 U/ml penicillin and 10 μg/ml streptomycin (Gibco, Grand Island, NY). All cell lines were incubated at 37°C in a 5% CO2 atmosphere. For electrophysiological recordings, cells were detached with trypsin, and floating single cells were diluted (∼300,000 cells/ml) in an extracellular solution containing (in mM): 140 NaCl, 4 KCl, 2 CaCl2, 1 MgCl2, 5 glucose and 10 HEPES (pH 7.4, osmolarity 298 mOsm), that was used throughout the experiments.
(§2) HwTx-IV analogues were investigated on CHO cells expressing hNav1.7 channel and HEK-293 cells expressing hNaV1.6 channel using the automated patch-clamp system from Nanion (SyncroPatch 384 PE; München, Germany). Chips with single-hole and high-resistance (∼6–7 MΩ) were used for both cell lines. Voltage pulses and whole-cell recordings were achieved using the PatchControl384 v1.5.2 software (Nanion) and the Biomek v1.0 interface (Beckman Coulter). Prior to recordings, dissociated cells were shaken at 200 RPM in a cell hotel reservoir at 10°C. After cell catching, sealing, whole-cell formation, liquid application, recording, and data acquisition were all performed sequentially and automatically. The intracellular solution contained (in mM): 110 CsF, 10 CsCl, 10 NaCl, 1 MgCl2, 1 CaCl2, 10 EGTA and 10 HEPES (pH 7.2, osmolarity 280 mOsm), and the extracellular solution was as described above. Whole-cell experiments were done at −100 mV holding potential and at room temperature (18–22°C), while currents triggered at either −10 or 0 mV test potential were sampled at 20 kHz. Stimulation frequency was set at 0.2 Hz. Each HwTx-IV analogue was prepared at various concentrations in the extracellular solution, itself supplemented with 0.3% of bovine serum albumin (BSA), also added in the control solution. The peptides were distributed in 384-well microplates according to the number of compounds to be tested (generally four), the concentration range defined from the IC50 of wild-type HwTx-IV, and the number of cells desired for each experimental condition. Compound solutions were diluted 3 times in the patch-clamp recording well by adding 30–60 μl external solution, to reach the final reported concentration and the test volume of 90 μl. For establishing dose-response curves, the compounds were tested at a test potential of either −10 or 0 mV for 50 ms with a pulse every 5 s. Percentages of current inhibition were measured at steady-state of blockage or at the end of a 15-min application time.

hNaV1.7 channel = molecular target: T2, hNaV1.7 channel (Homo sapiens, UniProt Q15858); test: Automated patch-clamp block of hNaV1.7 peak Na+ current in CHO cells; format: cell-based; settings: for hNaV1.7/hNaV1.6 selectivity ratio: inverse ratio of the mean IC50 values on hNaV1.7 (CHO) and hNaV1.6 (HEK-293) of Table 1; for hNaV1.7 IC50 versus WT: ratio of analogue mean IC50 to HwTx-IV WT mean IC50 on hNaV1.7; for IC50: CHO cells stably expressing hNaV1.7, SyncroPatch 384 PE whole-cell, holding -100 mV, -10 mV test pulse 50 ms every 5 s, room temperature 18-22°C, 0.3% BSA, steady state or end of 15-min application, mean, S.E.M. and n cells
T2 construct: expressed in transfected cells
Procedure: as §1
as §2, with “The peptides were distributed in 384-well microplates according to the number of compounds to be tested (generally four), the concentration range defined from the IC50 of wild-type HwTx-IV, and the number of cells desired for each experimental condition.” left out

T2 sequence (Q15858 whole entry): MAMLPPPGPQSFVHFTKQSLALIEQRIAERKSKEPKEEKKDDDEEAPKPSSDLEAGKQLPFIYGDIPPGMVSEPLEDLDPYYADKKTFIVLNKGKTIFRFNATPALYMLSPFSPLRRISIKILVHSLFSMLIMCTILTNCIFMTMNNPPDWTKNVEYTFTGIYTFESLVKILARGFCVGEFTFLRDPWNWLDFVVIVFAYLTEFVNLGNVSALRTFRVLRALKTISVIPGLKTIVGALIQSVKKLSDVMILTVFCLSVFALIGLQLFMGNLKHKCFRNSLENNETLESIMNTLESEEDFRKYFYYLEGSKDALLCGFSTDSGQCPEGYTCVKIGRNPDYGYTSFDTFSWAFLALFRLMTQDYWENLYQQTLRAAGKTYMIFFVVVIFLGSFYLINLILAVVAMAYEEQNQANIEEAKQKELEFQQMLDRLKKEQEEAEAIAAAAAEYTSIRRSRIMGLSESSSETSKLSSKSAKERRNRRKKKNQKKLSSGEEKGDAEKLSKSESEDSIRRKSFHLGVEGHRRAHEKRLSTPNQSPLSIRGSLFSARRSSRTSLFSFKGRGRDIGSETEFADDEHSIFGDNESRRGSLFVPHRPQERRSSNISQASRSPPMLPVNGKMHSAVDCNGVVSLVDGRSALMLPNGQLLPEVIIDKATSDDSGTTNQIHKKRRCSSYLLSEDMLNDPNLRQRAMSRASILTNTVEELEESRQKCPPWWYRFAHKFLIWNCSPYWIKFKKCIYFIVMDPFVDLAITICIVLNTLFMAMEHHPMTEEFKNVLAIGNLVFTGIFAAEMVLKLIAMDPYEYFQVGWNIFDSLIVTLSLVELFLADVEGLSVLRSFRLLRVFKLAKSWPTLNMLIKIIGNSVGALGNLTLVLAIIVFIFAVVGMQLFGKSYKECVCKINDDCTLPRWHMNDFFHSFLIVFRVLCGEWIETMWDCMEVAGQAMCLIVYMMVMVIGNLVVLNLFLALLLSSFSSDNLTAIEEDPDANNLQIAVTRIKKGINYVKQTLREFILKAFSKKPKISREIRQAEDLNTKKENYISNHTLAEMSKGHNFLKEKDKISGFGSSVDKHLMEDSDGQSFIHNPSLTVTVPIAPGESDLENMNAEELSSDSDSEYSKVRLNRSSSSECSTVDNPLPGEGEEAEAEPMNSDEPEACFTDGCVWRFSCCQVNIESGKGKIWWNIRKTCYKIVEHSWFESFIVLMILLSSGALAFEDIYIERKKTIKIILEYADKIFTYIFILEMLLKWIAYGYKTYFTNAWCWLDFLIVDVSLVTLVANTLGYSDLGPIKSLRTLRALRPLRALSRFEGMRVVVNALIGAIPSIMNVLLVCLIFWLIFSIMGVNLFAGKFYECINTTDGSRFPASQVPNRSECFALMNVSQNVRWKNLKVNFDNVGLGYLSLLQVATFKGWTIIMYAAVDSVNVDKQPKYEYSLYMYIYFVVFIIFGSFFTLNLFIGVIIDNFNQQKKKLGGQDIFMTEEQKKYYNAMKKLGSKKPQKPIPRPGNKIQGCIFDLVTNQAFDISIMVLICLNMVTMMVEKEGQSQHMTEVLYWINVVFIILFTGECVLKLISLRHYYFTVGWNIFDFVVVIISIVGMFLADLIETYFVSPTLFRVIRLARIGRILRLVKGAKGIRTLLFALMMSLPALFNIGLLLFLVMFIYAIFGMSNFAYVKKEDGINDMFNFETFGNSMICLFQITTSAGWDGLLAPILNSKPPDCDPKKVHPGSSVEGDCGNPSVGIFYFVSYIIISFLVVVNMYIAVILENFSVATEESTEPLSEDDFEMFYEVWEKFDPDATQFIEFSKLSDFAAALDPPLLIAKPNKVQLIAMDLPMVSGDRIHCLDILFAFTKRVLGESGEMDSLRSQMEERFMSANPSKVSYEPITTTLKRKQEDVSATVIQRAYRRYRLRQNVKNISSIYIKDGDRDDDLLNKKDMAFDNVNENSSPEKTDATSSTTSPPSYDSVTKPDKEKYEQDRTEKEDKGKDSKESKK
T1 sequence (Q9UQD0 whole entry): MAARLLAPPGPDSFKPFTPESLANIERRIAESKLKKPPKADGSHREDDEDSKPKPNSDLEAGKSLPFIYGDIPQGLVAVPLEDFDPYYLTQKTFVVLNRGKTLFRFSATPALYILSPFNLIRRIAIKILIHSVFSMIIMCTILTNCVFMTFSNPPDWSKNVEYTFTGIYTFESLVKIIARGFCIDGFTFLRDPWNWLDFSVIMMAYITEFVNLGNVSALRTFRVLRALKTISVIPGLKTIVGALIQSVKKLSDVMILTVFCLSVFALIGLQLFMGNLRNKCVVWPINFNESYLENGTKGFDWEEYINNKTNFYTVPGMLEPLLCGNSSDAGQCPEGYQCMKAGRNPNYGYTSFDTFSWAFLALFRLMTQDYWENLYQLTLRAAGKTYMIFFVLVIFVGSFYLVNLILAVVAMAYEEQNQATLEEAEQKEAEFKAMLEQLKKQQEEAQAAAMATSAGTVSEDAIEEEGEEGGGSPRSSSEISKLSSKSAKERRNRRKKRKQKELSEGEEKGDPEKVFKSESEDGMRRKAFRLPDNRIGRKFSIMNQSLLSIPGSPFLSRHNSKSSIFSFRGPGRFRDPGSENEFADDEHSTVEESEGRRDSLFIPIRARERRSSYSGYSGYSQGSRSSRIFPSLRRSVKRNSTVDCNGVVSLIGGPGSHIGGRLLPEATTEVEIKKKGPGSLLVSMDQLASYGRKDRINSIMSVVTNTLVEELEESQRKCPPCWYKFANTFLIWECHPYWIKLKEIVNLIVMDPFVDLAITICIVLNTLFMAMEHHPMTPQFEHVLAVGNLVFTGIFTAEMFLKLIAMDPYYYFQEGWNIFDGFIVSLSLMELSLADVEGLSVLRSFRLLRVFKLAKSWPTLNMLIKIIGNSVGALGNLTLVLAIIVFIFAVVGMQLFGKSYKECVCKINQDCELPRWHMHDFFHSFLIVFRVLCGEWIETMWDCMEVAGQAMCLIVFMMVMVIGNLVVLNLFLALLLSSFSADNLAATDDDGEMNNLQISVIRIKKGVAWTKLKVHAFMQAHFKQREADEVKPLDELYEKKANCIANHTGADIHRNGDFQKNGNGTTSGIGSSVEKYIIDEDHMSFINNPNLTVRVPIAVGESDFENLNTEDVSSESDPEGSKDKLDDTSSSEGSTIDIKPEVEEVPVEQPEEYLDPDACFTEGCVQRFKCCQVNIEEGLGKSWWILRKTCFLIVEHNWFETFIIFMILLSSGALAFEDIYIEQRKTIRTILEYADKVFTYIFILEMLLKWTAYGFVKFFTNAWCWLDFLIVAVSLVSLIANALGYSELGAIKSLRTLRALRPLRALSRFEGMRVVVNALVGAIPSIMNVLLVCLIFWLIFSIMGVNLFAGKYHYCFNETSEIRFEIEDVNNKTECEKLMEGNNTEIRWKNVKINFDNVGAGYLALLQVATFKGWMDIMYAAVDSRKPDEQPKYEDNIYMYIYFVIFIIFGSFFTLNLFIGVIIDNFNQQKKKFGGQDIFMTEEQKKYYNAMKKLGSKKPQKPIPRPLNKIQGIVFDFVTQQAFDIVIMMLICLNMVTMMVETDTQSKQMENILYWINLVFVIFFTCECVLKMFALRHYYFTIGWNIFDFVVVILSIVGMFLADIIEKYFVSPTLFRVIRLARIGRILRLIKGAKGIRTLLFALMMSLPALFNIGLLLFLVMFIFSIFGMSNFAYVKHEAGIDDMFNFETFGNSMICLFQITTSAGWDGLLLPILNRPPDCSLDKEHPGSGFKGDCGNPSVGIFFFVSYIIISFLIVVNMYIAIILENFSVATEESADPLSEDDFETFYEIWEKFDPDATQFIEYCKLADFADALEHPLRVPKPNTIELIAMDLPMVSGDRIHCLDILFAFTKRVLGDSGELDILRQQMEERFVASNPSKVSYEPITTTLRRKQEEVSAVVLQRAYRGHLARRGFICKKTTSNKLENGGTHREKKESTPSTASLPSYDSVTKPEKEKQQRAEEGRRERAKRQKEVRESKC

Q: Which results are given for `CC[C@H](C)[C@H](NC(=O)[C@H](CCC(N)=O)NC(=O)[C@H](Cc1ccc(O)cc1)NC(=O)[C@H](CCCCN)NC(=O)[C@@H]1CSSC[C@@H]2NC(=O)[C@H](CCC(N)=O)NC(=O)[C@H](CC(=O)O)NC(=O)[C@H](CC(N)=O)NC(=O)[C@H](CO)NC(=O)[C@@H]3CCCN3C(=O)[C@H](CC(N)=O)NC(=O)[C@@H]3CSSC[C@H](NC(=O)[C@H](C(C)C)NC(=O)[C@H](CC(C)C)NC(=O)[C@H](CCCCN)NC(=O)[C@H](CO)NC(=O)[C@H](CO)NC(=O)[C@H](CCCCN)NC(=O)[C@H](CSSC[C@H](NC(=O)CN)C(=O)N[C@@H](CC(C)C)C(=O)N[C@@H](CCC(=O)O)C(=O)N[C@@H]([C@@H](C)CC)C(=O)N[C@@H](Cc4ccccc4)C(=O)N[C@@H](CCCCN)C(=O)N[C@@H](C)C(=O)N3)NC2=O)C(=O)N[C@@H](CO)C(=O)N[C@@H](CCCNC(=N)N)C(=O)N[C@@H](CCCCN)C(=O)N[C@@H]([C@@H](C)O)C(=O)N[C@@H](CCCNC(=N)N)C(=O)N[C@@H](Cc2c[nH]c3ccccc23)C(=O)N1)C(N)=O` [HwTx-IV E^1G]?
A: hNaV1.6 IC50 versus WT (hNaV1.6 channel): 0.28; hNaV1.6 IC50 versus WT (hNaV1.6 channel; listed as HwTx-IV E^4G): 0.03; hNaV1.6 IC50 versus WT (hNaV1.6 channel; listed as HwTx-IV E^4K): 0.09; hNaV1.6 IC50 versus WT (hNaV1.6 channel; listed as HwTx-IV E^4R): 0.05; hNaV1.7/hNaV1.6 selectivity ratio (hNaV1.7 channel; listed as E^4K): less than 2; hNaV1.7/hNaV1.6 selectivity ratio (hNaV1.7 channel; listed as HwTx-IV E^4K): ~1; hNaV1.7 IC50 versus WT (hNaV1.7 channel): 0.70; hNaV1.7 IC50 versus WT (hNaV1.7 channel; listed as HwTx-IV E^4G): 0.16; hNaV1.7 IC50 versus WT (hNaV1.7 channel; listed as HwTx-IV E^4K): 1.43

Q: Which IC50 (hNaV1.6 channel) does the source give for `CC[C@H](C)[C@H](NC(=O)[C@H](CCC(N)=O)NC(=O)[C@H](Cc1ccc(O)cc1)NC(=O)[C@H](CCCCN)NC(=O)[C@@H]1CSSC[C@@H]2NC(=O)[C@H](CCC(N)=O)NC(=O)[C@H](CC(=O)O)NC(=O)[C@H](CC(N)=O)NC(=O)[C@H](CO)NC(=O)[C@@H]3CCCN3C(=O)[C@H](CC(N)=O)NC(=O)[C@@H]3CSSC[C@H](NC(=O)[C@H](C(C)C)NC(=O)[C@H](CC(C)C)NC(=O)[C@H](CCCCN)NC(=O)[C@H](CO)NC(=O)[C@H](CO)NC(=O)[C@H](CCCCN)NC(=O)[C@H](CSSC[C@H](NC(=O)[C@@H](N)CCC(=O)O)C(=O)N[C@@H](CC(C)C)C(=O)NCC(=O)N[C@@H]([C@@H](C)CC)C(=O)N[C@@H](Cc4ccccc4)C(=O)N[C@@H](CCCCN)C(=O)N[C@@H](C)C(=O)N3)NC2=O)C(=O)N[C@@H](CO)C(=O)N[C@@H](CCCNC(=N)N)C(=O)N[C@@H](CCCCN)C(=O)N[C@@H]([C@@H](C)O)C(=O)N[C@@H](CCCNC(=N)N)C(=O)N[C@@H](Cc2c[nH]c3ccccc23)C(=O)N1)C(=O)O` [HwTx-IV E^4G/CterCOOH] here?
A: Its IC50 is 55.1 nM.

Q: What about the “hNaV1.6 IC50 versus WT” value (hNaV1.6 channel) of the same compound?
A: Its value is 0.24.

Q: What about the IC50 (hNaV1.7 channel) of the same compound?
A: The IC50 was 14.9 nM.

Q: And the “hNaV1.7 IC50 versus WT” value (hNaV1.7 channel)?
A: Its value is 1.51.

Q: What does the source list for `CC[C@H](C)[C@H](NC(=O)[C@H](CCC(N)=O)NC(=O)[C@H](Cc1ccc(O)cc1)NC(=O)[C@H](CCCCN)NC(=O)[C@@H]1CSSC[C@@H]2NC(=O)[C@H](CCC(N)=O)NC(=O)[C@H](CC(=O)O)NC(=O)[C@H](CC(N)=O)NC(=O)[C@H](CO)NC(=O)[C@@H]3CCCN3C(=O)[C@H](CC(N)=O)NC(=O)[C@@H]3CSSC[C@H](NC(=O)[C@H](C(C)C)NC(=O)[C@H](CC(C)C)NC(=O)[C@H](CCCCN)NC(=O)[C@H](CO)NC(=O)[C@H](CO)NC(=O)[C@H](CCCCN)NC(=O)[C@H](CSSC[C@H](NC(=O)[C@@H](N)CCC(=O)O)C(=O)N[C@@H](CC(C)C)C(=O)N[C@@H](CCCCN)C(=O)N[C@@H]([C@@H](C)CC)C(=O)N[C@@H](Cc4ccccc4)C(=O)N[C@@H](CCCCN)C(=O)N[C@@H](C)C(=O)N3)NC2=O)C(=O)N[C@@H](CO)C(=O)N[C@@H](CCCNC(=N)N)C(=O)N[C@@H](CCCCN)C(=O)N[C@@H]([C@@H](C)O)C(=O)N[C@@H](CCCNC(=N)N)C(=O)N[C@@H](Cc2c[nH]c3ccccc23)C(=O)N1)C(=O)O` [HwTx-IV E^4K/CterCOOH]?
A: IC50 (hNaV1.6 channel): 136 nM; hNaV1.6 IC50 versus WT (hNaV1.6 channel): 0.60; IC50 (hNaV1.7 channel): 11.9 nM; hNaV1.7 IC50 versus WT (hNaV1.7 channel): 1.20

Q: `CC[C@H](C)[C@H](NC(=O)[C@H](CCC(N)=O)NC(=O)[C@H](Cc1c[nH]c2ccccc12)NC(=O)[C@H](CCCCN)NC(=O)[C@@H]1CSSC[C@@H]2NC(=O)[C@H](CCC(N)=O)NC(=O)[C@H](CC(=O)O)NC(=O)[C@H](CC(N)=O)NC(=O)[C@H](CO)NC(=O)[C@@H]3CCCN3C(=O)[C@H](CC(N)=O)NC(=O)[C@@H]3CSSC[C@H](NC(=O)[C@H](C(C)C)NC(=O)[C@H](CC(C)C)NC(=O)[C@H](CCCCN)NC(=O)[C@H](CO)NC(=O)[C@H](CO)NC(=O)[C@H](CCCCN)NC(=O)[C@H](CSSC[C@H](NC(=O)[C@@H](N)CCC(=O)O)C(=O)N[C@@H](CC(C)C)C(=O)N[C@@H](CCCCN)C(=O)N[C@@H]([C@@H](C)CC)C(=O)N[C@@H](Cc4ccccc4)C(=O)N[C@@H](CCCCN)C(=O)N[C@@H](C)C(=O)N3)NC2=O)C(=O)N[C@@H](CO)C(=O)N[C@@H](C)C(=O)N[C@@H](CCCCN)C(=O)N[C@@H]([C@@H](C)O)C(=O)N[C@@H](CCCNC(=N)N)C(=O)N[C@@H](Cc2c[nH]c3ccccc23)C(=O)N1)C(N)=O` [HwTx-IV E^4K/R ^26A/Y^33W] was tested. Which IC50 (hNaV1.6 channel) did it give?
A: Its IC50 is 86.4 nM.

Q: What about the “hNaV1.6 IC50 versus WT” value (hNaV1.6 channel) of the same compound?
A: Its value is 0.38.

Q: And the IC50 (hNaV1.7 channel)?
A: The IC50 was 0.9 nM.

Q: What about the hNaV1.7/hNaV1.6 selectivity ratio (hNaV1.7 channel) of the same compound?
A: Its hNaV1.7/hNaV1.6 selectivity ratio is “above 46”.

Q: What about the “hNaV1.7 IC50 versus WT” value (hNaV1.7 channel) of the same compound?
A: The value was 0.09.
